ChEMBL document CHEMBL1158253, “Isolation and structure of hemibastadinols 1-3 from the Papua New Guinea marine sponge Ianthella basta” (1996)
Activity calls are given as the source filed them. The rule behind the calls is not given here.

Columns and labels:
Escherichia coli = assay: Antimicrobial activity against Escherichia coli ATCC 25922 up to 100 ug/disk after 16 hrs by disk susceptibility test; assay type: functional, organism-based
Neisseria gonorrhoeae = assay: Antimicrobial activity against Neisseria gonorrhoeae ATCC 49226 after 16 hrs by disk susceptibility test; assay type: functional
Enterococcus faecalis = assay: Antimicrobial activity against Enterococcus faecalis ATCC 29212 after 16 hrs by disk susceptibility test; assay type: functional
Staphylococcus aureus = assay: Antimicrobial activity against Staphylococcus aureus ATCC 29213 after 16 hrs by disk susceptibility test; assay type: functional
Candida albicans = assay: Antimicrobial activity against Candida albicans ATCC 90028 up to 100 ug/disk after 42 hrs by disk susceptibility test; assay type: functional, organism-based
Cryptococcus neoformans = assay: Antimicrobial activity against Cryptococcus neoformans ATCC 90112 up to 100 ug/disk after 42 hrs by disk susceptibility test; assay type: functional, organism-based

Row | MIC (Neisseria gonorrhoeae) [µg] | MIC (Enterococcus faecalis) [µg] | MIC (Staphylococcus aureus) [µg] | Compound | Activity (Escherichia coli) | Activity (Candida albicans) | Activity (Cryptococcus neoformans)
1 | 50 | 12.5 | 6.25 | O=C(NCCc1ccc(O)c(Br)c1)/C(Cc1ccc(Oc2cc(C/C(=N/O)C(=O)NCCc3ccc(O)c(Br)c3)cc(Br)c2O)c(Br)c1)=N\O [BASTADIN1] | inactive | inactive | inactive
2 | 6.25 | – | 6.25 | COc1ccc(C/C(=N/O)C(=O)NCCc2ccc(O)c(Br)c2)cc1Br | – | inactive | inactive
3 | 3.12 | – | 3.12 | O=C(NCCc1ccc(O)c(Br)c1)/C(Cc1cc(Br)c(O)c(Br)c1)=N\O [HEMIBASTADIN 2] | – | inactive | inactive
4 | 50 | 50 | – | O=C(NCCc1ccc(O)c(Br)c1)[C@@H](O)Cc1ccc(O)c(Br)c1 [HEMIBASTADINOL 1] | – | inactive | inactive
5 | 50 | 50 | 6.25 | O=C(NCCc1ccc(O)c(Br)c1)/C(Cc1cc(Br)c(O)c(Oc2c(Br)cc(C/C(=N\O)C(=O)NCCc3ccc(O)c(Br)c3)cc2Br)c1)=N\O [BASTADIN 2] | – | inactive | inactive
6 | 0.78 | 3.12 | 1.56 | O=C(NCCc1ccc(O)c(Br)c1)/C(Cc1cc(Br)c(O)c(-c2cc(C/C(=N/O)C(=O)NCCc3ccc(O)c(Br)c3)cc(Br)c2O)c1)=N\O [BASTADIN 3] | – | inactive | inactive
7 | 12.5 | 50 | 1.56 | O=C(NCCc1ccc(O)c(Br)c1)/C(Cc1ccc(O)c(Br)c1)=N\O [HEMIBASTADIN 1] | – | inactive | inactive
8 | 12.5 | 50 | 12.5 | O=C1N/C=C/c2ccc(c(Br)c2)Oc2cc(cc(Br)c2O)CCNC(=O)/C(=N/O)Cc2cc(Br)c(c(Br)c2)Oc2cc(cc(Br)c2O)C/C1=N\O [BASTADIN 4] | – | inactive | inactive
9 | 10 | – | – | NC(=O)C(=O)NCCc1ccc(O)c(Br)c1 | – | inactive | inactive

Row | Compound | MIC (Neisseria gonorrhoeae) [µg] | MIC (Enterococcus faecalis) [µg] | MIC (Staphylococcus aureus) [µg] | Activity (Escherichia coli) | Activity (Candida albicans) | Activity (Cryptococcus neoformans)
10 | O=C1NCCc2cc(Br)c(O)c(c2)Oc2c(Br)cc(cc2Br)CCNC(=O)/C(=N/O)Cc2cc(Br)c(O)c(c2)Oc2c(Br)cc(cc2Br)C/C1=N\O [BASTADIN 6] | – | 12.5 | 6.25 | – | inactive | inactive
11 | O=C1NCCc2cc(Br)c(O)c(c2)Oc2ccc(cc2Br)CCNC(=O)/C(=N\O)Cc2cc(Br)c(O)c(c2)Oc2c(Br)cc(cc2Br)C/C1=N/O [BASTADIN 5] | 50 | 50 | 12.5 | – | inactive | inactive
